The record followed here is patent US10828301B2, “2,4-pyrimidinediamine compounds and their uses” (Rigel Pharmaceuticals, Inc, priority 2002, dated 2020).

SMILES strings stand for the structures. Counter-ions that a name gives are not always drawn.

The first experiment concerns cultured human mast cells (CHMC). The experiment is described as follows: CHMC low cell density IgE activation: tryptase and LTC4 assays. In kind it is cell-based. Particulars: Homo sapiens, Mast cell, Low Density CHMC, anti-IgE activation, hexosaminidase readout; read-out: CHMC anti-IgE Hexos. As to the method: Pellet CHMC cells (980 rpm, 10 min) and resuspend in pre-warmed MT. Add 65 ul of cells to each 96-well plate. Depending on the degranulation activity for each particular CHMC donor, load 1000-1500 cells/well. Mix four times followed by a 1 hr incubation at 37° C. […] Stimulate cells by adding 25 ul of 6× anti-IgE solution to the appropriate plates. Add 25 ul MT to un-stimulated control wells. Mix twice following addition of the anti-IgE. Incubate at 37° C. for 30 minutes. […] Spin plates at 1000 rpm for 10 min to pellet cells. Transfer 25 ul of supernatant to a 96-well black bottom plate and add 100 ul of freshly diluted tryptase substrate solution to each well. Incubate plates at room temperature for 30 min.
Leukotriene C4 (LTC4) is also quantified using an ELISA kit on appropriately diluted supernatant samples (determined empirically for each donor cell population so that the sample measurement falls within the standard curve) following the supplier's instructions.
Regarding `COCCNc1ncc(F)c(Nc2ccc3c(c2)OCCO3)n1` [Compound R926229, N4-(3,4-Ethylenedioxyphenyl)-5-fluoro-N2-(2-methoxyethyl)-2,4-pyrimidinediamine], the IC50 is above 10 µM.

On to `COc1ccc(CNc2ncc(F)c(Nc3ccc4c(c3)OCCO4)n2)cc1` [Compound R926230, N4-(3,4-Ethylenedioxyphenyl)-5-fluoro-N2-(4-methoxybenzyl)-2,4-pyrimidinediamine], for which the IC50 is above 10 µM.

Still in this experiment, the particulars now being: Homo sapiens, Mast cell, Low Density CHMC, anti-IgE activation, tryptase readout; read-out: CHMC anti-IgE Tryptase.
As for `COC(=O)C1Cc2cc(Nc3ncc(F)c(Nc4ccc(OC)nc4OC)n3)ccc2O1` (racemic) [Compound R927032, (±)-N2-(2,3-Dihydro-2-methoxycarbonylbenzofuran-5-yl)-N4-(2,6-dimethoxypyridin-3-yl)-5-fluoro-2,4-pyrimidinediamine], the IC50 worked out at 0.899 µM.

`Cc1ccc(CNc2ncc(F)c(Nc3ccc4c(c3)OCCO4)n2)cc1Cl` [Compound R908696, N2-(3-chloro-4-methylbenzyl)-N4-(3,4-ethylenedioxyphenyl)-5-fluoro-2,4-pyrimidinediamine]: the IC50 worked out at 3.55 µM.

In the case of `CN1C(=O)COc2ccc(Nc3nc(Nc4cccc(O)c4)ncc3F)cc21` [Compound R908709, 5-Fluoro-N2-(3-hydroxyphenyl)-N4-(N-methyl-1,4-benzoxazin-3-on-6-yl)-2,4-pyrimidinediamine], the IC50 was 2.41 µM.

Consider `OC(CNc1ncc(F)c(NCC(O)c2ccccc2)n1)c1ccccc1` (stereo not drawn) [Compound R925768, N2,N4-Bis(2-hydroxy-2-phenylethyl)-5-fluoro-2,4-pyrimidinediamine], for which the IC50 was above 10 µM.

In the case of `Fc1cnc(NCc2ccco2)nc1NCc1ccco1` [Compound R925769, N2,N4-Bis(furfuryl)-5-fluoro-2,4-pyrimidinediamine], the IC50 was above 10 µM.

In the case of `CCOC(=O)c1cnc(Nc2ccc3c(c2)OCCO3)nc1Nc1ccc2c(c1)OCCO2` [Compound R926252, N2,N4-Bis(3,4-ethylenedioxyphenyl)-5-ethoxycarbonyl-2,4-pyrimidinediamine], the IC50 is 2.8 µM.

On to `O=C(O)c1cc2cc(Nc3ncc(F)c(Nc4cccc(O)c4)n3)ccc2o1` [Compound R926478, N2-(2-Carboxybenzofuran-5-yl)-5-fluoro-N4-(3-hydroxyphenyl)-2,4-pyrimidinediamine], for which the IC50 was above 10 µM.

Turning to `O=C(O)c1cc2cc(Nc3ncc(F)c(Nc4cccc(O)c4)n3)ccc2[nH]1` [Compound R926479, N2-(2-Carboxyindol-5-yl)-5-fluoro-N4-(3-hydroxyphenyl)-2,4-pyrimidinediamine], the IC50 was above 10 µM.

For `O=C(O)c1cc2cc(Nc3ncc(F)c(Nc4ccc5c(c4)OCCO5)n3)ccc2o1` [Compound R926698, N4-(3,4-Ethylenedioxyphenyl)-5-fluoro-N2-(2-carboxybenzofuran-5-yl)-2,4-pyrimidinediamine], the IC50 is above 10 µM.

As to `Cc1onc(-c2ccccc2)c1Nc1ncc(F)c(Nc2ccc3c(c2)OCCO3)n1` [Compound R926743, N4-(3,4-Ethylenedioxyphenyl)-5-fluoro-N2-(3-phenyl-5-methylisoxazol-4-yl)-2,4-pyrimidinediamine], the IC50 was above 10 µM.

Consider `Cc1noc(C)c1Nc1ncc(F)c(Nc2ccc3c(c2)OCCO3)n1` [Compound R926744, N4-(3,4-Ethylenedioxyphenyl)-5-fluoro-N2-(3,5-dimethylisoxazol-4-yl)-2,4-pyrimidinediamine], for which the IC50 was above 10 µM.

`COc1ccc(Nc2nc(Nc3cccc(O)c3)ncc2F)c(OC)n1` [Compound R926887, N4-(2,6-Dimethoxypyridin-3-yl)-5-fluoro-N2-(3-hydroxyphenyl)-2,4-pyrimidinediamine]: the IC50 is 1.75 µM.

`CCOC(=O)C1CCN(C(=O)c2cccc(Nc3ncc(F)c(Nc4ccc5cc[nH]c5c4)n3)c2)CC1` [Compound R926935, N2-[3-[[4-(Ethoxycarbonyl)piperidino]carbonyl]phenyl]-5-fluoro-N4-[(1H)-indol-6-yl]-2,4-pyrimidinediamine]: the IC50 came out at 4.44 µM.

Turning to `CCOC(=O)C1CCN(C(=O)c2cccc(Nc3ncc(F)c(Nc4cccc(O)c4)n3)c2)CC1` [Compound R926939, N2-[3-[[4-(Ethoxycarbonyl)piperidino]carbonyl]phenyl]-5-fluoro-N4-(3-hydroxyphenyl)-2,4-pyrimidinediamine], the IC50 was 3.62 µM.

On to `CCOC(=O)C1CCN(C(=O)c2cccc(Nc3nc(Nc4cccc(O)c4)ncc3F)c2)CC1` [Compound R926940, N4-[3-[[4-(Ethoxycarbonyl)piperidino]carbonyl]phenyl]-5-fluoro-N2-(3-hydroxyphenyl)-2,4-pyrimidinediamine], for which the IC50 came out at 7.75 µM.

For the compound `CCOC1CCCc2ccc(Nc3nc(Nc4cccc(O)c4)ncc3F)cc21` (stereo not drawn) [Compound R926942, N4-(1-Ethoxy-1,2,3,4-tetrahydronaphthalen-7-yl)-5-fluoro-N2-(3-hydroxyphenyl)-2,4-pyrimidinediamine], the IC50 stood at 4.81 µM.

Regarding `Cc1ccc(Nc2nc(Nc3cccc(O)c3)ncc2F)nc1` [Compound R927017, 5-Fluoro-N2-(3-hydroxyphenyl)-N4-(5-methylpyridin-2-yl)-2,4-pyrimidinediamine], the IC50 turned out to be 2.45 µM.

`Oc1cccc(Nc2ncc(F)c(Nc3ccc(Cl)nc3)n2)c1` [Compound R927018, N4-(6-Chloropyridin-3-yl)-5-fluoro-N2-(3-hydroxyphenyl)-2,4-pyrimidinediamine]: the IC50 was determined as 1.45 µM.

Consider `Oc1cccc(Nc2ncc(F)c(Nc3ccc4ncccc4c3)n2)c1` [Compound R927019, 5-Fluoro-N2-(3-hydroxyphenyl)-N4-(quinolin-6-yl)-2,4-pyrimidinediamine], for which the IC50 was 1.18 µM.

In the case of `CC(C)(CO)c1ccc(Nc2nc(Nc3ccc4c(c3)OCCO4)ncc2F)cc1` [Compound R935149, N2-(3,4-Ethylenedioxyphenyl)-N4-[4-(2-hydroxy-1,1-dimethylethyl)phenyl]-5-fluoro-2,4-pyrimidinediamine], the IC50 was 0.708 µM.

Turning to `CC(C)Oc1ccc(Nc2ncc(F)c(Nn3cccc3)n2)cc1` [Compound R935276, 5-Fluoro-N2-(4-isopropoxyphenyl)-N4-(1H-pyrrol-1-yl)-2,4-pyrimidinediamine], the IC50 stood at 2.33 µM.

For `COC(=O)c1cc(Nc2ncc(F)c(Nc3ccc(OC)c(C(=O)OC)c3)n2)ccc1OC` [Compound R945066, N2,N4-Bis(4-methoxy-3-methoxycarbonylphenyl)-5-fluoro-2,4-pyrimidinediamine], the IC50 was 5.2 µM.

With `COc1ccc(Nc2ncc(F)c(Nc3ccc(OC)c(C(=O)O)c3)n2)cc1C(=O)O` [Compound R945067, N2,N4-Bis(3-carboxy-4-methoxyphenyl)-5-fluoro-2,4-pyrimidinediamine], the IC50 is above 10 µM.

On to `COc1cc(Nc2ncc(F)c(Nc3ccc(C(=O)O)c(OC)c3)n2)ccc1C(=O)O` [Compound R945068, N2,N4-Bis(4-carboxy-3-methoxyphenyl)-5-fluoro-2,4-pyrimidinediamine], for which the IC50 was above 10 µM.

Regarding `Nc1cccc(Nc2ccnc(Nc3cccc(N)c3)n2)c1` [Compound R950109, N2,N4-Bis(3-aminophenyl)-2,4-pyrimidinediamine], the IC50 was 7.95 µM.

Consider `Nc1ccc(Nc2ncc(F)c(Nc3ccc(N)cc3)n2)cc1` [Compound R950121, N2,N4-Bis(4-aminophenyl)-5-fluoro-2,4-pyrimidinediamine Hydrogen Chloride Salt], for which the IC50 amounted to 4.25 µM.

Turning to `Cc1ccc(Nc2ccnc(Nc3ccc(C)c(N)c3)n2)cc1N` [Compound R950130, N2,N4-Bis(3-amino-4-methylphenyl)-2,4-pyrimidinediamine], the IC50 was determined as 4.9 µM.

`Nc1c(F)ccc(Nc2ccnc(Nc3ccc(F)c(N)c3F)n2)c1F` [Compound R950131, N2,N4-Bis(3-amino-2,4-difluorophenyl)-2,4-pyrimidinediamine]: the IC50 is above 10 µM.

Regarding `COC(=O)c1cc(N)cc(Nc2ccnc(Nc3cc(N)cc(C(=O)OC)c3)n2)c1` [Compound R950132, N2,N4-Bis(3-amino-5-methoxycarbonylphenyl)-2,4-pyrimidinediamine], the IC50 worked out at 9 µM.

As to `Nc1c(F)ccc(Nc2ncc(F)c(Nc3ccc(F)c(N)c3F)n2)c1F` [Compound R950138, N2,N4-Bis(3-amino-2,4-difluorophenyl)-5-fluoro-2,4-pyrimidinediamine], the IC50 was 9.5 µM.

Take `CCOc1ccc(Nc2ccnc(Nc3ccc(OCC)c(N)c3)n2)cc1N` [Compound R950142, N2,N4-Bis(3-amino-4-ethoxyphenyl)-2,4-pyrimidinediamine]: the IC50 turned out to be 10 µM.

On to `Nc1cc(Nc2ccnc(Nc3cc(N)cc(C(F)(F)F)c3)n2)cc(C(F)(F)F)c1` [Compound R950143, N2,N4-Bis(3-amino-5-trifluoromethylphenyl)-2,4-pyrimidinediamine], for which the IC50 was 8.23 µM.

Still in this experiment, the particulars now being: Low Density CHMC, anti-IgE activation, tryptase readout; read-out: CHMC anti-IgE Tryptase.
On to `CNC(=O)COc1cccc(Nc2ncc(F)c(Nc3cc(C)ccn3)n2)c1` [Compound R927016, 5-Fluoro-N2-[3-(N-methylamino)carbonylmethyleneoxyphenyl]-N4-(4-methylpyridin-2-yl)-2,4-pyrimidinediamine], for which the IC50 came to 1.41 µM.

For `O=C(O)Cc1cccc(Nc2ncc(F)c(Nc3cccc(CC(=O)O)c3)n2)c1` [Compound R935117], the IC50 is above 10 µM.
